According to BindingDB's records for patent US9694002 (Genentech Inc, 2017):

Target: Sodium channel protein type 9 subunit alpha (Homo sapiens, UniProt Q15858)
Assay: Radioligand Binding Assay
Conditions: pH 7.4; 25 °C
Experimental: Binding of this radioligand was preformed in 5 mL borosilicate glass test tubes at room temperature. […] Non-specific binding was determined in the presence of 1 uM unlabelled compound. […] [3H]compound bound to filters was quantified by liquid scintillation counting.

Sodium channel protein type 9 subunit alpha, sequence (Q15858 whole entry): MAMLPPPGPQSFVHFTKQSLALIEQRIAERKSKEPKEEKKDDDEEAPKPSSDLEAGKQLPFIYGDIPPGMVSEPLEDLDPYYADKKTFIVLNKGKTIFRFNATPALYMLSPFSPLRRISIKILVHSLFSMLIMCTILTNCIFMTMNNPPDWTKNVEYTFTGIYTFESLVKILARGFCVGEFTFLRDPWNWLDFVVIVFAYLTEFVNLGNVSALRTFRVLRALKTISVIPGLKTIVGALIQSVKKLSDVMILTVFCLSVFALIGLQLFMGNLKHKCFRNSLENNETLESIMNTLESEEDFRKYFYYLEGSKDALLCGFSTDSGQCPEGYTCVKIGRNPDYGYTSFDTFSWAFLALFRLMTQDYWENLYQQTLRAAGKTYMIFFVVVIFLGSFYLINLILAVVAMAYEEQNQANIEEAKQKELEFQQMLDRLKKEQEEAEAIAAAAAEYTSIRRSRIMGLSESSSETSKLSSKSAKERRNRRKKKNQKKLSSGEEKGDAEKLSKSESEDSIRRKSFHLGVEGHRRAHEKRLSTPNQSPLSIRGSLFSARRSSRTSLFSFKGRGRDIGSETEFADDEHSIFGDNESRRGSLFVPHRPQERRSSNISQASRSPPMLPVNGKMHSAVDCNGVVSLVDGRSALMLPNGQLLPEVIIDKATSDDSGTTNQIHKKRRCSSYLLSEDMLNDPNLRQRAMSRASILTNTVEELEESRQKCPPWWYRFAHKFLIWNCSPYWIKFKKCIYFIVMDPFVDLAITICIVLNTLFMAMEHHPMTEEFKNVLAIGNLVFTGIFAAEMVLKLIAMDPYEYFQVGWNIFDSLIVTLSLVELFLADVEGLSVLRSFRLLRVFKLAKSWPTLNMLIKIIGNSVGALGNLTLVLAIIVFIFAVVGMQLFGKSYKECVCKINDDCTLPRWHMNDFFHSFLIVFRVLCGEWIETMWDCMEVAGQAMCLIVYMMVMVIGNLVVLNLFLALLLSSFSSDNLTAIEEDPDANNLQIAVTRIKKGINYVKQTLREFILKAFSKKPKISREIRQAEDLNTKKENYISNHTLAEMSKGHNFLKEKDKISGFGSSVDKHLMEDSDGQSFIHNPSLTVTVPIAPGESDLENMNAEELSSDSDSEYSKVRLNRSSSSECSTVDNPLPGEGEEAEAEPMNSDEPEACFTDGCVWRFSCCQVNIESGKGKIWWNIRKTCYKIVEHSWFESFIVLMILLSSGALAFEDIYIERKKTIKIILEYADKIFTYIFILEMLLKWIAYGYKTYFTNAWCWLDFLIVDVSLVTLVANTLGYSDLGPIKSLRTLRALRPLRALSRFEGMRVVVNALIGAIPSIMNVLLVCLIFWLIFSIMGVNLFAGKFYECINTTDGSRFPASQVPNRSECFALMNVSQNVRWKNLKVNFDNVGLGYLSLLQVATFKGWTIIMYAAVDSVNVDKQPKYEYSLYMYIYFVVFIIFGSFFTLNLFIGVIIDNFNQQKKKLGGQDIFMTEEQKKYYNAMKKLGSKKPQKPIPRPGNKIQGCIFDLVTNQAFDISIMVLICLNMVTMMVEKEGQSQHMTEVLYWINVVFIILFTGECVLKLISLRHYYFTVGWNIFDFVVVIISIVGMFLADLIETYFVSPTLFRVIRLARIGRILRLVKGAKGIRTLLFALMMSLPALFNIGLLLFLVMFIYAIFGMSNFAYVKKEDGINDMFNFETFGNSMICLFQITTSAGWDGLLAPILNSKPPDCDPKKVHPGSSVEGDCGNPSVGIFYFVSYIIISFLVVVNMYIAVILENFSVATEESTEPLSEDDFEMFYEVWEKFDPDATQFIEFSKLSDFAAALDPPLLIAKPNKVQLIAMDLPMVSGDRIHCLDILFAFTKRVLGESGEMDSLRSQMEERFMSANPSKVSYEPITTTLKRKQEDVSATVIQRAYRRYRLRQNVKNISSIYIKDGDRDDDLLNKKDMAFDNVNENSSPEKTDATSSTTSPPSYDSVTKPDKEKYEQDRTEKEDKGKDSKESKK

Row | Structure (SMILES) | IC50 [nM]
1 | O=C(NS(=O)(=O)C1CC1)c1cc(C2CC2)c(CN2CCC(Oc3ccc(Cl)cc3)CC2)cc1F [US9694002, 504] | 16
2 | CS(=O)(=O)NC(=O)c1cc(C2CC2)c(CN2CCC(Oc3ccc(Cl)cc3)CC2)cc1F [US9694002, 503] | 30
